# US20140120087A1, “TRIAZOLOPYRIDINES” (BAYER INTELLECTUAL PROPERTY GMBH, priority 2011, published 2014)
# Tests used:
# [1] = target: T1, Mps-1 kinase (Homo sapiens, UniProt P33981); assay: Mps-1 kinase assay with 2 mM ATP (TR-FRET)
# T1 sequence (P33981 1-857): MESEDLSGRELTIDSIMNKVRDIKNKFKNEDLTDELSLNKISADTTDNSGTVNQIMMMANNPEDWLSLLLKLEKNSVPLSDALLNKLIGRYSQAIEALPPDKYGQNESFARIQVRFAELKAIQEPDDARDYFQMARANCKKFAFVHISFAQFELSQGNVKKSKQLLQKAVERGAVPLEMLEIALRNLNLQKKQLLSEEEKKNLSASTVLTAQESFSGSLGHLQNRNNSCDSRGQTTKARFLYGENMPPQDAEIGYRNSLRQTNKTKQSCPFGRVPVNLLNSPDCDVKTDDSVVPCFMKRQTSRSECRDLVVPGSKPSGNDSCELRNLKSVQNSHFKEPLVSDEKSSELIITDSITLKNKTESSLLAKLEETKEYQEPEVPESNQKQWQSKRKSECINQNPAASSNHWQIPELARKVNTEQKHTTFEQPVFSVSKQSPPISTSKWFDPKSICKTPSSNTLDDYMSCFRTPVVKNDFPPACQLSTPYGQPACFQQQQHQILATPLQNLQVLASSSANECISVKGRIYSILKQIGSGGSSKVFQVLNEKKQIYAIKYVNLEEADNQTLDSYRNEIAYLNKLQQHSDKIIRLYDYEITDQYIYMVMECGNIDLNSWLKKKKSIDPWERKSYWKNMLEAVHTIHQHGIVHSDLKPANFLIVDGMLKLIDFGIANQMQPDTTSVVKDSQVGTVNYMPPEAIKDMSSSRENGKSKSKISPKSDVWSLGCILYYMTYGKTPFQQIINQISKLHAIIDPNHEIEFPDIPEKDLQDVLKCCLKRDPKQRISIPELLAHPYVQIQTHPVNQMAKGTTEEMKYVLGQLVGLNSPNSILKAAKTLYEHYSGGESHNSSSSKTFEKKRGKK
# [2] = Hydrolytic stability assay at pH 2; assay type: physicochemical; conditions: buffer pH 2, 37° C., compounds of the invention
# Method: The hydrolytic stability assay investigates the stability of a compound in an aqueous buffer system. Standard solution stability assay is run in 0.05 M Phosphate buffer at pH 7.4 (pH of blood plasma) at 37° C. As compounds in the GI tract are exposed to a wide variety of pHs any relevant pH (as pH 2 to simulate the acidic condition of the GI tract in the following experiment) can be chosen. Compounds are incubated in relevant solution at 37° C. and analyzed by HPLC immediately after incubation and after 1, 2 and 24 hrs. Degradation rate (decay in %) is calculated by relating peak areas after 1, 2 and 24 hrs to the time zero injection.
# Compound is available as 10 mM in DMSO (solution 1). 2.5 μL of solution 1 is dissolved in 1 mL acetonitrile leading to solution 2. Poorly soluble compounds may demand another dilution step of solution 2 (1:5 and 1:10 respectively) in Acetonitrile). Solution 2 is incubated at 37° C. in a tempered HPLC autosampler. 1 mL buffer pH 2 is transferred into an HPLC vial. 100 μL of solution 2 is added to the buffer pH 2 solution and mixed thoroughly. Immediately after mixing the combined solution is injected into the HPLC to give the time zero injection. Injections are repeated after 1, 2 and 24 hrs.
# The degradation rate (decay in %) is calculated using HPLC software Millennium and Excel respectively.
# [3] = target: T1, Mps-1 kinase; assay: Mps-1 kinase assay with 10 μM ATP (TR-FRET)
IC50 [1] [nM],Hydrolysis at pH 2; Decay in % after 24 h [2] [%],IC50 [3] [nM],SMILES
≤ 1,<10,≤ 1,"COc1cc(C(=O)NC(C)(C)C)ccc1Nc1nc2ccc(-c3ccc(NC(=O)Cc4ccc(F)cc4)cc3)cn2n1 [Example 01.5, N-tert-butyl-4-{[6-(4-{[(4-fluorophenyl)acetyl]amino}phenyl)[1,2,4]-triazolo[1,5-α]pyridin-2-yl]amino}-3-methoxybenzamide]"
≤ 1,<10,≤ 1,"COc1cc(C(=O)NCCO)ccc1Nc1nc2ccc(-c3ccc(NC(=O)Cc4ccc(F)cc4)cc3)cn2n1 [Example 01.6, 4-{[6-(4-{[(4-fluorophenyl)acetyl]amino}phenyl)[1,2,4]triazolo[1,5-α]-pyridin-2-yl]amino}-N-(2-hydroxyethyl)-3-methoxybenzamide]"
≤ 1,<10,≤ 1,"CCOCCNC(=O)c1ccc(Nc2nc3ccc(-c4ccc(NC(=O)Cc5ccc(F)cc5)cc4)cn3n2)c(OC)c1 [Example 01.7, N-(2-ethoxyethyl)-4-{[6-(4-{[(4-fluorophenyl)acetyl]amino}phenyl)[1,2,4]-triazolo[1,5-α]pyridin-2-yl]amino}-3-methoxybenzamide]"
≤ 1,<10,≤ 1,"CCOc1cc(C(=O)NCCO)ccc1Nc1nc2ccc(-c3ccc(NC(=O)Cc4ccc(F)cc4)cc3)cn2n1 [Example 01.8, 3-ethoxy-4-{[6-(4-{[(4-fluorophenyl)acetyl]amino}phenyl)[1,2,4]triazolo-[1,5-α]pyridin-2-yl]amino}-N-(2-hydroxyethyl)benzamide]"
≤ 1,<10,≤ 1,"CCOc1cc(C(=O)NC(C)(C)CO)ccc1Nc1nc2ccc(-c3ccc(NC(=O)Cc4ccc(F)cc4)cc3)cn2n1 [Example 01.9, 3-ethoxy-4-{[6-(4-{[(4-fluorophenyl)acetyl]amino}phenyl)[1,2,4]triazolo-[1,5-α]pyridin-2-yl]amino}-N-(1-hydroxy-2-methylpropan-2-yl)benzamide]"
≤ 1,<10,≤ 1,"CCOc1cc(C(=O)N(CC)CC)ccc1Nc1nc2ccc(-c3ccc(NC(=O)Cc4ccc(F)cc4)cc3)cn2n1 [Example 01.10, 3-ethoxy-N,N-diethyl-4-{[6-(4-{[(4-fluorophenyl)acetyl]amino}phenyl)-[1,2,4]triazolo[1,5-α]pyridin-2-yl]amino}benzamide]"
≤ 1,<10,≤ 1,"O=C(Cc1ccc(F)cc1)Nc1ccc(-c2ccc3nc(Nc4ccc(C(=O)NCCO)cc4OCC(F)(F)F)nn3c2)cc1 [Example 01.11, 4-{[6-(4-{[(4-fluorophenyl)acetyl]amino}phenyl)[1,2,4]triazolo[1,5-α]-pyridin-2-yl]amino}-N-(2-hydroxyethyl)-3-(2,2,2-trifluoroethoxy)benzamide]"
≤ 1,<10,≤ 1,"COc1cc(C(=O)NCC(C)(C)O)ccc1Nc1nc2ccc(-c3ccc(NC(=O)Cc4ccc(F)cc4)cc3)cn2n1 [Example 01.12, 4-{[6-(4-{[(4-fluorophenyl)acetyl]amino}phenyl)[1,2,4]triazolo[1,5-α]-pyridin-2-yl]amino}-N-(2-hydroxy-2-methylpropyl)-3-methoxybenzamide]"
≤ 1,<10,≤ 1,"COc1cc(C(=O)NC(C)(C)CO)ccc1Nc1nc2ccc(-c3ccc(NC(=O)Cc4ccc(F)cc4)cc3)cn2n1 [Example 01.13, 4-{[6-(4-{[(4-fluorophenyl)acetyl]amino}phenyl)[1,2,4]triazolo[1,5-α]-pyridin-2-yl]amino}-N-(1-hydroxy-2-methylpropan-2-yl)-3-methoxy-benzamide]"
≤ 1,<10,≤ 1,"COc1cc(C(=O)N(C)CCN(C)C(C)=O)ccc1Nc1nc2ccc(-c3ccc(NC(=O)Cc4ccc(F)cc4)cc3)cn2n1 [Example 01.14, N-{2-[acetyl(methyl)amino]ethyl}-4-{[6-(4-{[(4-fluorophenyl)acetyl]amino}-phenyl)[1,2,4]triazolo[1,5-α]pyridin-2-yl]amino}-3-methoxy-N-methylbenzamide]"
≤ 1,<10,≤ 1,"CCNC(=O)c1ccc(Nc2nc3ccc(-c4ccc(NC(=O)Cc5ccc(F)cc5)cc4)cn3n2)c(OCC)c1 [Example 01.16, 3-ethoxy-N-ethyl-4-{[6-(4-{[(4-fluorophenyl)acetyl]amino}phenyl)[1,2,4]-triazolo[1,5-α]pyridin-2-yl]amino}benzamide]"
≤ 1,<10,≤ 1,"CCOc1cc(C(=O)NCC(C)(C)O)ccc1Nc1nc2ccc(-c3ccc(NC(=O)Cc4ccc(F)cc4)cc3)cn2n1 [Example 01.17, 3-ethoxy-4-{[6-(4-{[(4-fluorophenyl)acetyl]amino}phenyl)[1,2,4]triazolo-[1,5-α]pyridin-2-yl]amino}-N-(2-hydroxy-2-methylpropyl)benzamide]"
≤ 1,<10,≤ 1,"CCOc1cc(C(=O)N(CC)CCOC)ccc1Nc1nc2ccc(-c3ccc(NC(=O)Cc4ccc(F)cc4)cc3)cn2n1 [Example 01.18, 3-ethoxy-N-ethyl-4-{[6-(4-{[(4-fluorophenyl)acetyl]amino}phenyl)[1,2,4]-triazolo[1,5-α]pyridin-2-yl]amino}-N-(2-methoxyethyl)benzamide]"
≤ 1,<10,≤ 1,"CCOc1cc(C(=O)N(C)CCO)ccc1Nc1nc2ccc(-c3ccc(NC(=O)Cc4ccc(F)cc4)cc3)cn2n1 [Example 01.19, 3-ethoxy-4-{[6-(4-{[(4-fluorophenyl)acetyl]amino}phenyl)[1,2,4]triazolo-[1,5-α]pyridin-2-yl]amino}-N-(2-hydroxyethyl)-N-methylbenzamide]"
≤ 1,<10,≤ 1,"CNCCN(C)C(=O)c1ccc(Nc2nc3ccc(-c4ccc(NC(=O)Cc5ccc(F)cc5)cc4)cn3n2)c(OC)c1 [Example 01.20, 4-{[6-(4-{[(4-fluorophenyl)acetyl]amino}phenyl)[1,2,4]triazolo[1,5-α]-pyridin-2-yl]amino}-3-methoxy-N-methyl-N-[2-(methylamino)ethyl]-benzamide]"
≤ 1,<10,≤ 1,"CC(C)(C)NC(=O)c1ccc(Nc2nc3ccc(-c4ccc(NC(=O)Cc5ccc(F)cc5)cc4)cn3n2)c(OCC(F)(F)F)c1 [Example 01.21, N-tert-butyl-4-{[6-(4-{[(4-fluorophenyl)acetyl]amino}phenyl)[1,2,4]-triazolo[1,5-α]pyridin-2-yl]amino}-3-(2,2,2-trifluoroethoxy)benzamide]"
≤ 1,<10,≤ 1,"CCN(CC)C(=O)c1ccc(Nc2nc3ccc(-c4ccc(NC(=O)Cc5ccc(F)cc5)cc4)cn3n2)c(OCC(F)(F)F)c1 [Example 01.22, N,N-diethyl-4-{[6-(4-{[(4-fluorophenyl)acetyl]amino}phenyl)[1,2,4]triazolo-[1,5-α]pyridin-2-yl]amino}-3-(2,2,2-trifluoroethoxy)benzamide]"
1.1,<10,≤ 1,"CCCOc1cc(C(=O)N(CC)CC)ccc1Nc1nc2ccc(-c3ccc(NC(=O)Cc4ccc(F)cc4)cc3)cn2n1 [Example 01.23, N,N-diethyl-4-{[6-(4-{[(4-fluorophenyl)acetyl]amino}phenyl)[1,2,4]triazolo-[1,5-α]pyridin-2-yl]amino}-3-propoxybenzamide]"
